Data reported in ChEMBL document CHEMBL4414672, “Synthesis of certain benzothieno[3,2-d]pyrimidine derivatives as a selective SIRT2 inhibitors” (Eur J Med Chem, 2020).

Tests used:
Type in all cases: functional
[1] = tested on: TK-10; test: Growth inhibition of human TK10 cells at 10^-5 M incubated for 48 hrs by sulforhodamine B assay; conditions: TK-10, 48 h, read-out: GI
[2] = tested on: SF-295; test: Growth inhibition of human SF295 cells at 10^-5 M incubated for 48 hrs by sulforhodamine B assay; conditions: SF-295, 48 h, read-out: GI
[3] = tested on: MOLT-4; test: Growth inhibition of human MOLT4 cells at 10^-5 M incubated for 48 hrs by sulforhodamine B assay; conditions: MOLT-4, 48 h, read-out: GI
[4] = tested on: 786-0; test: Growth inhibition of human 786-0 cells at 10^-5 M incubated for 48 hrs by sulforhodamine B assay; conditions: 786-0, 48 h, read-out: GI
[5] = tested on: T47D; test: Growth inhibition of human T47D cells at 10^-5 M incubated for 48 hrs by sulforhodamine B assay; conditions: read-out: GI
[6] = tested on: Hs-578T; test: Growth inhibition of human Hs 578T cells at 10^-5 M incubated for 48 hrs by sulforhodamine B assay; conditions: read-out: GI
[7] = tested on: SK-OV-3; test: Growth inhibition of human SKOV3 cells at 10^-5 M incubated for 48 hrs by sulforhodamine B assay; conditions: SK-OV-3, 48 h, read-out: GI
[8] = tested on: SR; test: Growth inhibition of human SR cells at 10^-5 M incubated for 48 hrs by sulforhodamine B assay; conditions: read-out: GI
[9] = tested on: OVCAR-8; test: Growth inhibition of human OVCAR8 cells at 10^-5 M incubated for 48 hrs by sulforhodamine B assay; conditions: OVCAR-8, 48 h, read-out: GI
[10] = tested on: MDA-MB-435; test: Growth inhibition of human MDA-MB-435 cells at 10^-5 M incubated for 48 hrs by sulforhodamine B assay; conditions: MDA-MB-435, 48 h, read-out: GI
[11] = tested on: CAKI-1; test: Growth inhibition of human Caki1 cells at 10^-5 M incubated for 48 hrs by sulforhodamine B assay; conditions: CAKI-1, 48 h, read-out: GI
[12] = tested on: KM12; test: Growth inhibition of human KM12 cells at 10^-5 M incubated for 48 hrs by sulforhodamine B assay; conditions: KM12, 48 h, read-out: GI
[13] = tested on: EKVX; test: Growth inhibition of human EKVX cells at 10^-5 M incubated for 48 hrs by sulforhodamine B assay; conditions: read-out: GI
[14] = tested on: UACC-257; test: Growth inhibition of human UACC257 cells at 10^-5 M incubated for 48 hrs by sulforhodamine B assay; conditions: UACC-257, 48 h, read-out: GI
[15] = tested on: HL-60(TB); test: Growth inhibition of human HL-60(TB) cells at 10^-5 M incubated for 48 hrs by sulforhodamine B assay; conditions: HL-60, 48 h, read-out: GI
[16] = tested on: OVCAR-5; test: Growth inhibition of human OVCAR5 cells at 10^-5 M incubated for 48 hrs by sulforhodamine B assay; conditions: OVCAR-5, 48 h, read-out: GI
[17] = tested on: LOX IMVI; test: Growth inhibition of human LOXIMVI cells at 10^-5 M incubated for 48 hrs by sulforhodamine B assay; conditions: read-out: GI
[18] = tested on: U-251; test: Growth inhibition of human U251 cells at 10^-5 M incubated for 48 hrs by sulforhodamine B assay; conditions: U-251, 48 h, read-out: GI
[19] = tested on: IGROV-1; test: Growth inhibition of human IGROV1 cells at 10^-5 M incubated for 48 hrs by sulforhodamine B assay; conditions: IGROV-1, 48 h, read-out: GI
[20] = tested on: SK-MEL-28; test: Growth inhibition of human SK-MEL-28 cells at 10^-5 M incubated for 48 hrs by sulforhodamine B assay; conditions: SK-MEL-28, 48 h, read-out: GI
[21] = tested on: SNB-75; test: Growth inhibition of human SNB75 cells at 10^-5 M incubated for 48 hrs by sulforhodamine B assay; conditions: SNB-75, 48 h, read-out: GI
[22] = tested on: SW-620; test: Growth inhibition of human SW620 cells at 10^-5 M incubated for 48 hrs by sulforhodamine B assay; conditions: SW-620, 48 h, read-out: GI
[23] = tested on: SF-539; test: Growth inhibition of human SF539 cells at 10^-5 M incubated for 48 hrs by sulforhodamine B assay; conditions: SF-539, 48 h, read-out: GI
[24] = tested on: NCI-H226; test: Growth inhibition of human NCI-H226 cells at 10^-5 M incubated for 48 hrs by sulforhodamine B assay; conditions: NCI-H226, 48 h, read-out: GI
[25] = tested on: COLO 205; test: Growth inhibition of human COLO205 cells at 10^-5 M incubated for 48 hrs by sulforhodamine B assay; conditions: COLO 205, 48 h, read-out: GI
[26] = tested on: HOP-62; test: Growth inhibition of human HOP62 cells at 10^-5 M incubated for 48 hrs by sulforhodamine B assay; conditions: HOP-62, 48 h, read-out: GI
[27] = tested on: RXF 393; test: Growth inhibition of human RXF393 cells at 10^-5 M incubated for 48 hrs by sulforhodamine B assay; conditions: RXF 393, 48 h, read-out: GI
[28] = tested on: M14; test: Growth inhibition of human M14 cells at 10^-5 M incubated for 48 hrs by sulforhodamine B assay; conditions: M14, 48 h, read-out: GI
[29] = tested on: UACC-62; test: Growth inhibition of human UACC62 cells at 10^-5 M incubated for 48 hrs by sulforhodamine B assay; conditions: UACC-62, 48 h, read-out: GI
[30] = tested on: HCT-116; test: Growth inhibition of human HCT116 cells at 10^-5 M incubated for 48 hrs by sulforhodamine B assay; conditions: HCT-116, 48 h, read-out: GI
[31] = tested on: DU-145; test: Growth inhibition of human DU145 cells at 10^-5 M incubated for 48 hrs by sulforhodamine B assay; conditions: DU-145, 48 h, read-out: GI
[32] = tested on: HOP-92; test: Growth inhibition of human HOP92 cells at 10^-5 M incubated for 48 hrs by sulforhodamine B assay; conditions: HOP-92, 48 h, read-out: GI
[33] = tested on: NCI-H460; test: Growth inhibition of human NCI-H460 cells at 10^-5 M incubated for 48 hrs by sulforhodamine B assay; conditions: NCI-H460, 48 h, read-out: GI
[34] = tested on: A549; test: Growth inhibition of human A549/ATCC cells at 10^-5 M incubated for 48 hrs by sulforhodamine B assay; conditions: A549, 48 h, read-out: GI
[35] = tested on: MDA-MB-231; test: Growth inhibition of human MDA-MB-231 cells at 10^-5 M incubated for 48 hrs by sulforhodamine B assay; conditions: MDA-MB-231, 48 h, read-out: GI
[36] = tested on: HCT-15; test: Growth inhibition of human HCT15 cells at 10^-5 M incubated for 48 hrs by sulforhodamine B assay; conditions: HCT-15, 48 h, read-out: GI
[37] = tested on: SK-MEL-5; test: Growth inhibition of human SK-MEL-5 cells at 10^-5 M incubated for 48 hrs by sulforhodamine B assay; conditions: SK-MEL-5, 48 h, read-out: GI
[38] = tested on: HCC 2998; test: Growth inhibition of human HCC2998 cells at 10^-5 M incubated for 48 hrs by sulforhodamine B assay; conditions: HCC 2998, 48 h, read-out: GI

| Compound | inhibition of growth at 10 µM [1] [%] | inhibition of growth at 10 µM [2] [%] | inhibition of growth at 10 µM [3] [%] | inhibition of growth at 10 µM [4] [%] | inhibition of growth at 10 µM [5] [%] | inhibition of growth at 10 µM [6] [%] | inhibition of growth at 10 µM [7] [%] | inhibition of growth at 10 µM [8] [%] | inhibition of growth at 10 µM [9] [%] | inhibition of growth at 10 µM [10] [%] | inhibition of growth at 10 µM [11] [%] | inhibition of growth at 10 µM [12] [%] | inhibition of growth at 10 µM [13] [%] | inhibition of growth at 10 µM [14] [%] | inhibition of growth at 10 µM [15] [%] | inhibition of growth at 10 µM [16] [%] | inhibition of growth at 10 µM [17] [%] | inhibition of growth at 10 µM [18] [%] | inhibition of growth at 10 µM [19] [%] | inhibition of growth at 10 µM [20] [%] | also measured |
| --- | --- | --- | --- | --- | --- | --- | --- | --- | --- | --- | --- | --- | --- | --- | --- | --- | --- | --- | --- | --- | --- |
| CCOC(=O)CSC1=Nc2c(sc3ccc(Cl)cc23)C(c2cccc([N+](=O)[O-])c2)N1 (stereo unspecified) | -16.2 | -0.53 | 14.6 | -2.24 | 22.6 | -3.04 | 8.27 | 21.4 | -1.34 | -10.6 | 16.5 | -0.19 | 15.9 | 2.03 | 3.55 | -1.2 | 0.14 | 3.38 | 21.6 | -14 | inhibition of growth at 10 µM [21]: 11.3%; inhibition of growth at 10 µM [22]: -4.96%; inhibition of growth at 10 µM [23]: -3.84%; inhibition of growth at 10 µM [24]: 8.28%; inhibition of growth at 10 µM [25]: -3.41%; inhibition of growth at 10 µM [26]: 19.6%; inhibition of growth at 10 µM [27]: -12.8%; inhibition of growth at 10 µM [28]: -3.62%; inhibition of growth at 10 µM [29]: 6.62%; inhibition of growth at 10 µM [30]: 3.88%; inhibition of growth at 10 µM [31]: -8.66%; inhibition of growth at 10 µM [32]: -10.1%; inhibition of growth at 10 µM [33]: -0.74%; inhibition of growth at 10 µM [34]: 2.51%; inhibition of growth at 10 µM [35]: 9.26%; inhibition of growth at 10 µM [36]: -2.2%; inhibition of growth at 10 µM [37]: 3.95%; inhibition of growth at 10 µM [38]: -16.9% |
| N=C1Nc2c(sc3ccc(Cl)cc23)C(c2ccc3ccccc3c2)N1 (stereo unspecified) | 30.2 | -3.49 | 10.9 | 5.33 | -15.3 | 14.6 | -0.13 | -0.62 | -3.15 | -4.57 | -12.5 | 3.41 | 1.13 | 8.66 | -3.45 | -3.77 | 6.47 | -0.54 | -4.93 | 2.06 | inhibition of growth at 10 µM [21]: 0.66%; inhibition of growth at 10 µM [22]: 0.99%; inhibition of growth at 10 µM [23]: -2.62%; inhibition of growth at 10 µM [24]: 6.58%; inhibition of growth at 10 µM [25]: -6.53%; inhibition of growth at 10 µM [26]: 13.8%; inhibition of growth at 10 µM [27]: 0.36%; inhibition of growth at 10 µM [28]: -0.34%; inhibition of growth at 10 µM [29]: 6%; inhibition of growth at 10 µM [30]: 10.6%; inhibition of growth at 10 µM [31]: 12.1%; inhibition of growth at 10 µM [32]: 8.76%; inhibition of growth at 10 µM [33]: 13.2%; inhibition of growth at 10 µM [34]: 7.42%; inhibition of growth at 10 µM [35]: -0.83%; inhibition of growth at 10 µM [36]: 3.37%; inhibition of growth at 10 µM [37]: -0.53%; inhibition of growth at 10 µM [38]: 10.9% |
